Reference: patent publication US12319700B2, “Monohydrate potassium salt of a thienopyridone derivative and its preparation process” (POXEL, priority 2018, dated 2025)

What was measured:
[1] = test system: Spontaneous Hypertensive Rat (SHR); assay: Arterial pressure by telemetry in conscious unrestrained Spontaneous Hypertensive Rat (SHR); assay type: in vivo; conditions: 150 mg/kg bid for 5 days, over 24 h on the 5th day
Procedure: The effects of Compound (I) on arterial pressure was measured in conscious unrestrained well-known rat model of hypertension, the Spontaneous Hypertensive Rat (SHR), using telemetry. SHR aged of 21-22 weeks present a higher arterial pressure compared to healthy Wistar rats: systolic arterial pressure was 200 mmHg vs 120 mmHg in Wistar rats.
Four male SHR were submitted to surgery to implant a blood pressure catheter into the abdominal aorta. The telemetry transmitter was attached to the peritoneum. Ten days after recovery, the same animal received vehicle or Compound (I) 150 mg/kg bid administered for 5 days, 5 weeks apart. Systolic, diastolic and mean arterial pressures were recorded during 24 h, the 5th day of treatment.

ob/ob mice [2] = assay: Dyslipidemia in male obese diabetic dyslipidemic ob/ob mice, 5 weeks of treatment; assay type: in vivo, mouse
Procedure: (§1) Effects of Compound (I) in male obese diabetic dyslipidemic ob/ob mice after 5 weeks of treatment.
(§2) Compound (I) was administered at 25, 50 and 100 mg/kg twice a day by oral route in carboxy methylcellulose 0.5%/Tween 80 (98/2) (n=10). A group of ob/ob mice was treated with carboxy methylcellulose 0.5%/Tween 80 (98/2) as a control group.

[3] = test system: diet-induced obesity non-alcoholic steatohepatitis (DIO-NASH) mouse model; assay: Diet-induced obesity NASH (DIO-NASH) mouse model: effects on liver and adipose tissue metabolism; assay type: in vivo; conditions: 8 weeks; for change of liver weight compared to ctrl group / decrease in hepatic stellate cell activation (aSMA positive staining) / decrease in plasma free fatty acid level / increase of PGCl-α protein expression in AT / reduction of fat pad mass / reduction of liver TG content / hormone-sensitive lipase P-HSLser565 / down-regulation of fibrotic gene expression (type I collagen): p<0.01; for hormone-sensitive lipase P-HSLser563 / hormone-sensitive lipase P-HSLser565: adipose tissue; for down-regulation of fibrotic gene expression (type I collagen): liver
Procedure: (§3) • The effects of the monohydrate potassium salt of formula (I) (or “Compound (I)”) on liver and adipose tissue (AT) metabolism in a diet-induced obesity non-alcoholic steatohepatitis (DIO-NASH) mouse model are reported here.
(§4) After 41 weeks, only DIO-NASH mice with biopsy-confirmed steatosis (score ≥2) and fibrosis (stage ≥1) were included and received orally (n=12) vehicle (ctrl), compound (I) 35 or 75 mg/kg twice daily for 8 weeks.

ob/ob mice [4] = assay: Body weight in male obese diabetic dyslipidemic ob/ob mice, 5 weeks of treatment; assay type: in vivo, mouse
Procedure: as §1, §2

AMPK = AMPK activity (P-AMPK/AMPK) in liver and visceral adipose tissue of DIO-NASH mice; assay type: in vivo, mouse; conditions: 8 weeks; for increase of AMPK activity in the liver (P-AMPK/AMPK): p<0.05
Procedure: as §3, §4

[5] = 50 mg/kg twice a day oral, p<0.001
[6] = 100 mg/kg twice a day oral, p<0.001

O=c1[nH]c2sc(Cl)c(-c3ccc4c(c3O)CCCC4)c2c([O-])c1-c1ccccc1.[K+] [Compound (I), monohydrate potassium salt of 2-chloro-4-hydroxy-3-(5-hydroxytetralin-6-yl)-5-phenyl-7H-thieno[2,3-b]pyridin-6-one]
reduction of diastolic arterial pressure (DAP) compared to vehicle-treated SHR [1]: −17 mmHg | reduction of mean arterial pressure (MAP) compared to vehicle-treated SHR [1]: −18 mmHg | reduction of systolic arterial pressure (SAP) compared to vehicle-treated SHR [1]: −19 mmHg | decrease of plasma FFA (ob/ob mice [2]; 25 mg/kg twice a day oral, NS): −14% | decrease of plasma triglyceride (ob/ob mice [2]; 25 mg/kg twice a day oral, NS): −19% | increase in HDL cholesterol (ob/ob mice [2]; 25 mg/kg twice a day oral, NS): +12% | decrease of plasma triglyceride (ob/ob mice [2]; [5]): −40% | increase in HDL cholesterol (ob/ob mice [2]; [5]): +31% | decrease of plasma FFA (ob/ob mice [2]; 50 mg/kg twice a day oral, p<0.05): −35% | decrease of plasma FFA (ob/ob mice [2]; 100 mg/kg twice a day oral, NS): −21% | decrease of plasma triglyceride (ob/ob mice [2]; [6]): −43% | increase in HDL cholesterol (ob/ob mice [2]; [6]): +32% | reduction of NAFLD Activity Score (NAS) ([3]; 35 mg/kg orally twice daily, from 6.6, p<0.01): −32% | change of liver weight compared to ctrl group ([3]; 35 mg/kg orally twice daily): −23% | decrease in hepatic stellate cell activation (aSMA positive staining) ([3]; 35 mg/kg orally twice daily): −34% | decrease in plasma free fatty acid level ([3]; 35 mg/kg orally twice daily): −37% | increase of PGCl-α protein expression in AT ([3]; 35 mg/kg orally twice daily): +321% | reduction of fat pad mass ([3]; 35 mg/kg orally twice daily): −25% | reduction of liver TG content ([3]; 35 mg/kg orally twice daily): −36% | NAFLD Activity Score (NAS) after treatment ([3]; 35 mg/kg orally twice daily, from 6.6): 4.5 | reduction of NAFLD Activity Score (NAS) ([3]; 75 mg/kg orally twice daily, from 6.7, p<0.01): −44% | change of liver weight compared to ctrl group ([3]; 75 mg/kg orally twice daily): −33% | decrease in hepatic stellate cell activation (aSMA positive staining) ([3]; 75 mg/kg orally twice daily): −39% | decrease in plasma free fatty acid level ([3]; 75 mg/kg orally twice daily): −38% | increase of PGCl-α protein expression in AT ([3]; 75 mg/kg orally twice daily): +409% | reduction of fat pad mass ([3]; 75 mg/kg orally twice daily): −37% | reduction of liver TG content ([3]; 75 mg/kg orally twice daily): −42% | decrease of MCP-1 gene expression in AT ([3]; 75 mg/kg orally twice daily, p<0.05): −55% | NAFLD Activity Score (NAS) after treatment ([3]; 75 mg/kg orally twice daily, from 6.7): 3.8 | hormone-sensitive lipase P-HSLser563 ([3]; 35 mg/kg orally twice daily): −67% | hormone-sensitive lipase P-HSLser565 ([3]; 35 mg/kg orally twice daily): +416% | hormone-sensitive lipase P-HSLser563 ([3]; 75 mg/kg orally twice daily): −52% | hormone-sensitive lipase P-HSLser565 ([3]; 75 mg/kg orally twice daily): +425% | down-regulation of fibrotic gene expression (type I collagen) ([3]; 35 mg/kg orally twice daily): −65% | down-regulation of fibrotic gene expression (type I collagen) ([3]; 75 mg/kg orally twice daily): −68% | decrease of body weight compared to day 1 (ob/ob mice [4]; 25 mg/kg twice a day oral): −17% | decrease of body weight compared to day 1 (ob/ob mice [4]; 50 mg/kg twice a day oral): −24% | AMPK activation in visceral AT (P-AMPK/AMPK) (AMPK; 35 mg/kg orally twice daily, ns): +130% | increase of AMPK activity in the liver (P-AMPK/AMPK) (AMPK; 35 mg/kg orally twice daily): +128% | AMPK activation in visceral AT (P-AMPK/AMPK) (AMPK; 75 mg/kg orally twice daily, p<0.01): +152% | increase of AMPK activity in the liver (P-AMPK/AMPK) (AMPK; 75 mg/kg orally twice daily): +143%
